Test: Phase I study NCT02841540: treatment-related adverse events and dose-limiting toxicities
Type: in vivo, human
From the text: Patients were enrolled using a conventional 3+3 dose escalation phase I design, with escalations based on a modified Fibonacci sequence scheme (Storer Biometrics. 1989;45(3):925-937). Dose escalations continued until a dose level at which ≥2 patients of the 3-6 enrolled experienced a dose-limiting toxicity (DLT). Maximally tolerated dose (MTD) was defined as the highest dose at which no more than 1 out of 6 patients experienced a DLT. DLTs were defined as any of the following: any Grade 3 or greater study drug-related non-hematologic toxicity except for Grade 3 nausea, vomiting, fatigue, or diarrhea that resolved to Grade 1 or less within 1 week; failure to administer at least 70% of the protocol-specific dose; or prolonged myelosuppression with the persistence of Grade 4 cytopenia in the absence of persistent leukemia or blast increase 21 or more days after suspending dosing. DLTs were assessed during the first 28 days using National Cancer Institute (NCI) Common Toxicity Criteria for Adverse Events (CTCAE) version 4.03.
The primary endpoints measured included occurrence of DLTs, the type and frequency of treatment-emergent adverse events (TEAEs), and serious adverse events (SAEs). Key secondary endpoints included drug pharmacokinetics (PK) and preliminary antitumor activity, such as the overall response rate (ORR), effect of drug therapy on transfusion requirements, and overall survival (OS). Biomarker analyses and drug pharmacodynamics (PD) were included as exploratory endpoints. […] In addition, a second schedule (Schedule II) of 21 days on therapy and a rest of 7 days without therapy was explored. […] However, when limited clinical activity was observed on Schedule I, Schedule II was introduced to test whether more prolonged spliceosome modulation would lead to higher clinical activity. Each treatment cycle was 28 days in length. Patients could continue treatment until disease progression or development of unacceptable toxicity.
Eligibility criteria included normal vitamin A levels and visual acuity that corrected to 20/40 unless a cataract was present. Ophthalmologic evaluation, including fundoscopic imaging and visual evoked potentials, was performed during study screening and periodically throughout the duration of the trial.

[1] = Schedule I, 1, 2, 3.5, & 5 mg QD, N = 25

Q: Which results are given for `C/C(=C\C=C\[C@@H](C)c1ccccn1)[C@H]1OC(=O)C[C@H](O)CC[C@@](C)(O)[C@@H](OC(=O)N2CCN(C)CC2)/C=C/[C@@H]1C` [Compound 1, (2S,3S,4E,6S,7R,10R)-7,10-dihydroxy-3,7-dimethyl-12-oxo-2-[(2E,4E,6R)-6-(pyridine-2-yl)hepta-2,4-dien-2-yl]oxacyclododec-4-en-6-yl-4-methylpiperazine-1-carboxylate]?
A: adverse event in a patient with SF3B1-mutant lower-risk MDS (7 mg, Schedule I, first week of study therapy): developed pancytopenia and marrow aplasia; male share of subjects who reported grade 3 treatment related AEs (9 of the 12 subjects): 75%; male share of subjects reporting treatment related AEs (all grades) (45 of the 63 subjects): 71%; MTD (initially defined, not formally confirmed) (Schedule I): 30 mg; recommended QD dose (Schedule I): 30 mg per day; dose dependency in the rate of treatment related TEAEs (all grades) (Schedule I, 1 mg-40 mg): no obvious dose dependency; Any TEAE (treatment-related, all grades) (Schedule I, 7 mg QD, N = 14): 11 (79) n (%); Diarrhea (treatment-related TEAE, all grades) (Schedule I, 7 mg QD, N = 14): 4 (29) n (%); Fatigue (treatment-related TEAE, all grades) (Schedule I, 7 mg QD, N = 14): 2 (14) n (%); Nausea (treatment-related TEAE, all grades) (Schedule I, 7 mg QD, N = 14): 4 (29) n (%); Vomiting (treatment-related TEAE, all grades) (Schedule I, 7 mg QD, N = 14): 2 (14) n (%); patients with DLT marrow aplasia (Schedule I, 7 mg, lower-risk MDS and SF3B1 mutation): 1 patient; Any TEAE (treatment-related, all grades) (Schedule I, 10 mg QD, N = 7): 3 (43) n (%); Diarrhea (treatment-related TEAE, all grades) (Schedule I, 10 mg QD, N = 7): 2 (29) n (%); Fatigue (treatment-related TEAE, all grades) (Schedule I, 10 mg QD, N = 7): 1 (14) n (%); Nausea (treatment-related TEAE, all grades) (Schedule I, 10 mg QD, N = 7): 2 (29) n (%); Vomiting (treatment-related TEAE, all grades) (Schedule I, 10 mg QD, N = 7): 2 (29) n (%); Any TEAE (treatment-related, all grades) (Schedule I, 14 mg QD, N = 5): 5 (100) n (%); Diarrhea (treatment-related TEAE, all grades) (Schedule I, 14 mg QD, N = 5): 5 (100) n (%); Fatigue (treatment-related TEAE, all grades) (Schedule I, 14 mg QD, N = 5): 0 n (%); Nausea (treatment-related TEAE, all grades) (Schedule I, 14 mg QD, N = 5): 1 (20) n (%); Vomiting (treatment-related TEAE, all grades) (Schedule I, 14 mg QD, N = 5): 1 (20) n (%); Any TEAE (treatment-related, all grades) (Schedule I, 20 mg QD, N = 4): 3 (75) n (%); Diarrhea (treatment-related TEAE, all grades) (Schedule I, 20 mg QD, N = 4): 1 (25) n (%); Fatigue (treatment-related TEAE, all grades) (Schedule I, 20 mg QD, N = 4): 2 (50) n (%); Nausea (treatment-related TEAE, all grades) (Schedule I, 20 mg QD, N = 4): 2 (50) n (%); Vomiting (treatment-related TEAE, all grades) (Schedule I, 20 mg QD, N = 4): 0 n (%); Any TEAE (treatment-related, all grades) (Schedule I, 30 mg QD, N = 4): 4 (100) n (%); Diarrhea (treatment-related TEAE, all grades) (Schedule I, 30 mg QD, N = 4): 3 (75) n (%); Fatigue (treatment-related TEAE, all grades) (Schedule I, 30 mg QD, N = 4): 1 (25) n (%); Nausea (treatment-related TEAE, all grades) (Schedule I, 30 mg QD, N = 4): 3 (75) n (%); Vomiting (treatment-related TEAE, all grades) (Schedule I, 30 mg QD, N = 4): 0 n (%); patients with DLT prolonged QTcF >500 msec (investigator-assessed) (Schedule I, 40 mg): 2 out of 6; subjects reporting grade 3 AEs (Schedule I, 40 mg): 3 of 6; Any TEAE (treatment-related, all grades) (Schedule I, 40 mg QD, N = 6): 5 (83) n (%); Diarrhea (treatment-related TEAE, all grades) (Schedule I, 40 mg QD, N = 6): 5 (83) n (%); Fatigue (treatment-related TEAE, all grades) (Schedule I, 40 mg QD, N = 6): 2 (33) n (%); Nausea (treatment-related TEAE, all grades) (Schedule I, 40 mg QD, N = 6): 3 (50) n (%); Vomiting (treatment-related TEAE, all grades) (Schedule I, 40 mg QD, N = 6): 3 (50) n (%); subjects reporting a treatment related TEAE (Schedule I, 40 mg, N=6): 83%; Any TEAE (treatment-related, all grades) [1]: 19 (76) n (%); Diarrhea (treatment-related TEAE, all grades) [1]: 7 (28) n (%); Fatigue (treatment-related TEAE, all grades) [1]: 3 (12) n (%); Nausea (treatment-related TEAE, all grades) [1]: 3 (12) n (%); Vomiting (treatment-related TEAE, all grades) [1]: 1 (4) n (%); Anemia (Grade 3 or 4 treatment-related TEAE) (Schedule I, N = 65): 4 (6) n (%); ECG QTcF prolonged (Grade 3 or 4 treatment-related TEAE) (Schedule I, N = 65): 2 (3) n (%); Fatigue (Grade 3 or 4 treatment-related TEAE) (Schedule I, N = 65): 2 (3) n (%); Hypophosphatemia (Grade 3 or 4 treatment-related TEAE) (Schedule I, N = 65): 0 n (%); Nausea (Grade 3 or 4 treatment-related TEAE) (Schedule I, N = 65): 0 n (%); Platelet count decreased (Grade 3 or 4 treatment-related TEAE) (Schedule I, N = 65): 2 (3) n (%); Sinus bradycardia (Grade 3 or 4 treatment-related TEAE) (Schedule I, N = 65): 0 n (%); Any TEAE (treatment-related, all grades) (Schedule I, Total, N = 65): 50 (77) n (%); Diarrhea (treatment-related TEAE, all grades) (Schedule I, Total, N = 65): 27 (42) n (%); Fatigue (treatment-related TEAE, all grades) (Schedule I, Total, N = 65): 11 (17) n (%); Nausea (treatment-related TEAE, all grades) (Schedule I, Total, N = 65): 18 (28) n (%); Vomiting (treatment-related TEAE, all grades) (Schedule I, Total, N = 65): 9 (14) n (%); diarrhea, treatment-related TEAE (Schedule I, all patients): 42%; fatigue, treatment-related TEAE (Schedule I, all patients): 17%; nausea, treatment-related TEAE (Schedule I, all patients): 28%; vomiting, treatment-related TEAE (Schedule I, all patients): 14%; subjects reporting a treatment related TEAE (Schedule I, lowest combined dose level (1, 2, 3.5 and 5 mg, N=25)): 76%; MTD (initially defined, not formally confirmed) (Schedule II): 14 mg; recommended QD dose (Schedule II): 14 mg per day

— patent US20240043928A1, “BIOMARKERS FOR MYELODYSPLASTIC SYNDROME (MDS) AND METHODS OF USING THE SAME” (Eisai R&D Management Co., Ltd., priority 2020, published 2024)
